Test results: patent US10004688B2, “Liposomal mupirocin” (priority 2014, dated 2018)
In brackets after ≈: the same amount, converted by molar mass.

Columns and labels:
[1] = Mupirocin solubility in buffers and solubilizer solutions; type: physicochemical
Procedure: Liposomes were prepared using the calcium acetate (CA) gradient method [Clerc S, Barenholz Y. 1995. Loading of amphipathic weak acids into liposomes in response to transmembrane calcium acetate gradients. Biochim Biophys Acta 1240:257-265]. Specifically, lipids in a mole ratio of 55:40:5 HSPC: cholesterol: mPEG DSPE were mechanically hydrated by stirring at 65° C. with 200 mM calcium acetate pH 5.5, at a weight ratio of 1:9. The liposomal dispersion was downsized by stepwise extrusion by the Northern Lipids (Burnaby, BC, Canada) extruder using polycarbonate filters starting with 3 times extrusion through a 400 nm pore size membrane, then 3 times through a 100 nm pore size membrane, and finally 10 times through a 50 nm pore size membrane. Liposomes were then dialyzed using a Cellu Sep regenerated cellulose membrane (Membrane Filtration Products, USA), against a 10% sucrose solution. In the case of HPCD-containing liposomes, lipids were hydrated by 200 mM calcium acetate pH 5.5 containing 15% (w/w) HPCD. Control HPCD liposomes were prepared by hydrating lipids with 15% (w/w) HPCD in phosphate buffer 200 mM pH 6.3. All other preparation steps (downsizing and dialysis) were the same as described above. Remote loading was performed by incubating at 65° C. for 10 min a solution of the drug with the liposome dispersion at a volume ratio of 1:1. Liposomes used for loading were freshly prepared and used within one week. Drug loading solutions were prepared in 200 mM phosphate buffer pH 6.3. High mupirocin concentrations in phosphate buffer pH 6.3 (28 mM) were achieved by vigorous stirring and 10 min sonication in a bath sonicator. Loading was also tested from 1 to 10% (w/w) HPCD solutions in phosphate buffer pH 6.3. High mupirocin concentration (28 mM) in 1% HPCD solution was achieved by vigorous stirring and sonication as described for phosphate buffer. Mupirocin solutions in higher HPCD concentrations (2.5-10%) were prepared by stirring only. Loading was also performed from propylene glycol (PG) and from polyethylene glycol (PEG) 400 solutions. In these cases, a stock solution of 100 mM mupirocin was prepared and diluted to the desired concentration with 200 mM phosphate buffer pH 6.3.
Mupirocin is not freely soluble in aqueous medium. Being a weak acid, its solubility increases with pH. Mupirocin was soluble in phosphate buffer 200 mM pH 6.3 up to a concentration of 15 mM. […] However, high concentrations (≥28 mM) in 1% HPCD required 10 min sonication in order to achieve a clear solution. It should be noted that the chromatographic profile of mupirocin in the different solutions tested was similar to that of a standard solution.

[2] = tested on: Group A streptococcus (GAS); experiment: Mice necrotizing fasciitis model; type: in vivo, Female BALB/c mice
Procedure: Necrotizing fasciitis model was performed based on a published method [Hidalgo-grass, C. et al. Mechanisms of disease Effect of a bacterial pheromone peptide on host chemokine degradation in group A streptococcal necrotising soft-tissue infections. 363, (2004)]. Specifically the working protocol included:
Female BALB/c mice, 10 g weight and at the age of 3-4 weeks were selected.
1st Day: Bacteria were seeded on blood-agar plates and incubated at 37° C. THY medium was prepared, autoclaved and kept at room temperature.
2nd Day: plates were taken from the incubator and placed at room temperature.
4th Day: bacteria were transferred from the plates to 5 ml THY tube (warmed in the incubator).
5th Day: 2 ml bacteria were transferred from the 5 ml THY tube to 50 ml THY tube. Bacteria were grown to early logarithmic phase (O.D600=0.3-0.4), washed with PBS and suspended in PBS to O.D600=0.8 which correlates to 10^8 bacteria in injected volume of 100 μl. The obtained bacteria volume was divided to vials according to the number of mice in the study. Each dilution was seeded on blood agar plates and counting colonies on the day after.
On the 5th day, mice hair was removed from the center of mice back and bacteria were injected subcutaneously.
Disease condition was followed according to the Table 2A below.
Specifically, Group A streptococcus (GAS) injection (0.75×10^8 CFU) was administered to all study groups. The drug was administered by IV injection of 100 μl formulation. Eachliposomal mupirocin dose was 45 mg/kg. Each free mupirocin dose was 50 mg/kg.

Neisseria gonorrhoeae = settings: cited from earlier work
[3] = tested on: gram-positive bacteria, including the methicillin-resistant Staphylococcus aureus (MRSA) and Streptococcus pneumoniae; settings: gram-positive bacteria incl. MRSA and Streptococcus pneumoniae; cited from earlier work
serum protein = settings: cited from earlier work
[4] = literature data, free mupirocin; cited from earlier work
[5] = group 2: free drug 50 mg/kg IV 3 h before and 3 and 24 h after GAS injection (150 mg/kg/day), 24 h after challenge
[6] = group 2: free drug 50 mg/kg IV 3 h before and 3 and 24 h after GAS injection (150 mg/kg/day), 48 h after challenge
[7] = group 2: free drug 50 mg/kg IV 3 h before and 3 and 24 h after GAS injection (150 mg/kg/day), 72 h after challenge
[8] = group 2: free drug 50 mg/kg IV 3 h before and 3 and 24 h after GAS injection (150 mg/kg/day), 96 h after challenge

C/C(=C\C(=O)OCCCCCCCCC(=O)O)C[C@@H]1OC[C@H](C[C@@H]2O[C@H]2[C@@H](C)[C@H](C)O)[C@@H](O)[C@H]1O [Mupirocin, 9-[(E)-4-[(2S,3R,4R,5S)-3,4-dihydroxy-5-[[(2S,3S)-3-[(2S,3S)-3-hydroxybutan-2-yl]oxiran-2-yl]methyl]oxan-2-yl]-3-methylbut-2-enoyl]oxynonanoic acid]
solubility ([1]; HPCD solution in phosphate buffer, aqueous with cosolvent or surfactant or cyclodextrin, thermodynamic from solid, HPCD solutions of 1-10% w/w in phosphate buffer pH 6.3): > 34 mM | solubility ([1]; PEG 400, organic solvent or mixture): ~100 mM | solubility ([1]; aqueous buffer, thermodynamic from solid, phosphate buffer 200 mM pH 6.3, without vigorous stirring and sonication): ≤ 15 mM | solubility at 10 min ([1]; aqueous buffer, thermodynamic from solid, phosphate buffer pH 6.3, after vigorous stirring and sonication): ~28 mM (≈ 14 mg/mL) | solubility ([1]; calcium acetate solution, aqueous buffer, calcium acetate 200 mM pH 5.5): < 2000 µg/mL | solubility ([1]; organic solvent or mixture, PG (propylene glycol)): ~100 mM | increase of solubility ([1]; pH 5.5): not more than 10 fold | % weight change ([2]; group 2: free drug 50 mg/kg IV 3 h before and 3 and 24 h after GAS injection (150 mg/kg/day), 24 h after bacteria challenge): −7% | Average mice weight [2, 5]: 12.5 g | Description of mice movement [2, 5]: Regular | Eyes appearance [2, 5]: Open eyes | Hair appearance [2, 5]: Rough hair | Mice mortality [2, 5]: 0 | Wound appearance [2, 5]: No wound | Average mice weight [2, 6]: 11.7 g | Description of mice movement [2, 6]: Regular | Eyes appearance [2, 6]: Open eyes | Hair appearance [2, 6]: Rough hair | Mice mortality [2, 6]: 0 | Average mice weight [2, 7]: 12.3 g | Description of mice movement [2, 7]: Regular | Eyes appearance [2, 7]: Open eyes | Mice mortality [2, 7]: 0 | Average mice weight [2, 8]: 12.7 g | Description of mice movement [2, 8]: Regular | Eyes appearance [2, 8]: Open eyes | Mice mortality [2, 8]: 0 | mortality ([2]; mice, GAS s.c. challenge, IV treatment): did not show mortality | development of disease / symptoms ([2]; mice, GAS s.c. challenge, IV treatment, listed as free drug): developed the disease 24 h after bacteria challenge | development of disease / symptoms ([2]; mice, GAS s.c. challenge, IV treatment, listed as free mupirocin): developed the disease symptoms | MIC (Neisseria gonorrhoeae): 0.05 µg/mL (≈ 0.0999 µM) | activity in vitro [3]: active in vitro | protein binding affinity (serum protein): 96.5% | elimination half-life [4]: 20 to 40 min
